# Reference: PubChem BioAssay AID192 (DTP/NCI, 2004)
# Values joined by “and” are separate entries in the source; they are usually repeats but may differ in a detail not shown here. Equal entries are not always repeated. Toxic doses and inconclusive results are not listed.
# Tested on: BDF1 mice, B16 melanoma ip, median survival T/C
# Experiment: NCI In Vivo Anticancer Drug Screen. Data for tumor model B16 Melanoma (intraperitoneal) in B6D2F1 (BDF1) mice
# Conditions: endpoint: median survival time, higher = longer survival
# In short: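 Mice with transplantable tumors; drug vs vehicle groups; endpoint survival or tumor size; value = T/C.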
# [1] = dose: 6.25 mg/kg/injection, schedule: Q01DX009 (ip), vehicle: saline
# [2] = dose: 12.5 mg/kg/injection, schedule: Q01DX009 (ip), vehicle: saline
# [3] = dose: 25.0 mg/kg/injection, schedule: Q01DX009 (ip), vehicle: saline
# [4] = dose: 50.0 mg/kg/injection, schedule: Q01DX009 (ip), vehicle: saline
structure (smiles),measurement,setting,value
COc1ccc2cc3[n+](cc2c1OC)CCc1cc2c(cc1-3)OCO2,T/C,"dose: 1.5 mg/kg/injection, schedule: Q01DX009 (ip), vehicle: carboxymethylcellulose (CMC)",105 % of control
same,T/C,"dose: 2.5 mg/kg/injection, schedule: Q01DX009 (ip), vehicle: Klucel (hydroxypropylcellulose) (HPC)",106 % of control
same,T/C,"dose: 2.5 mg/kg/injection, schedule: Q01DX009 (ip), vehicle: saline with Tween-80",100 % of control
same,T/C,"dose: 2.5 mg/kg/injection, schedule: Q02DX005 (ip), vehicle: Klucel (hydroxypropylcellulose) (HPC)",109 % of control
same,T/C,"dose: 3.0 mg/kg/injection, schedule: Q01DX009 (ip), vehicle: carboxymethylcellulose (CMC)",96 % of control
same,T/C,"dose: 3.12 mg/kg/injection, schedule: Q01DX009 (ip), vehicle: carboxymethylcellulose (CMC)",95 % of control
same,T/C,"dose: 5.0 mg/kg/injection, schedule: Q01DX009 (ip), vehicle: Klucel (hydroxypropylcellulose) (HPC)",108 % of control
same,T/C,"dose: 5.0 mg/kg/injection, schedule: Q01DX009 (ip), vehicle: saline with Tween-80",110 % of control
same,T/C,"dose: 5.0 mg/kg/injection, schedule: Q02DX005 (ip), vehicle: Klucel (hydroxypropylcellulose) (HPC)",110 % of control
same,T/C,"dose: 6.25 mg/kg/injection, schedule: Q01DX009 (ip), vehicle: Klucel (hydroxypropylcellulose) (HPC)",105 % of control
same,T/C,"dose: 10.0 mg/kg/injection, schedule: Q01DX009 (ip), vehicle: saline with Tween-80",102 % of control
same,T/C,"dose: 10.0 mg/kg/injection, schedule: Q02DX005 (ip), vehicle: Klucel (hydroxypropylcellulose) (HPC)",100 % of control
same,T/C,"dose: 12.5 mg/kg/injection, schedule: Q01DX009 (ip), vehicle: Klucel (hydroxypropylcellulose) (HPC)",106 % of control
CC(CC#N)OC(=O)c1cccc([N+](=O)[O-])c1 (stereo not drawn),T/C,"dose: 100.0 mg/kg/injection, schedule: Q01DX009 (ip), vehicle: Klucel (hydroxypropylcellulose) (HPC)",88 % of control
same,T/C,"dose: 200.0 mg/kg/injection, schedule: Q01DX009 (ip), vehicle: Klucel (hydroxypropylcellulose) (HPC)",99 % of control
same,T/C,"dose: 400.0 mg/kg/injection, schedule: Q01DX009 (ip), vehicle: Klucel (hydroxypropylcellulose) (HPC)",91 % of control
Cc1cn(C2CC3[O][Sn]([c]4ccccc4)([c]4ccccc4)[O]CC3O2)c(=O)[nH]c1=O (stereo not drawn),T/C,[1],91 % of control
same,T/C,[2],93 % of control and 117 % of control
same,T/C,[3],94 % of control and 124 % of control
same,T/C,[4],98 % of control
CCN(CC)CCOc1ccc2c(c1)C(=O)c1cc(OCCN(CC)CC)ccc1-2,T/C,"dose: 13.0 mg/kg/injection, schedule: Q01DX009 (ip), vehicle: saline",124 % of control
same,T/C,"dose: 21.6 mg/kg/injection, schedule: Q01DX009 (ip), vehicle: saline",123 % of control
same,T/C,"dose: 100.0 mg/kg/injection, schedule: Q01DX009 (ip), vehicle: saline",124 % of control
COc1cc2cc(c1Cl)N(C)C(=O)CC(OC(=O)CC(C)C)C1(C)OC1C(C)C1CC(O)(NC(=O)O1)C(OC)/C=C/C=C(C)C2 (stereo not drawn),T/C,"dose: 3.1 micrograms/kg/injection, schedule: Q01DX009 (ip), vehicle: saline + alcohol",122 % of control
same,T/C,"dose: 6.25 micrograms/kg/injection, schedule: Q01DX009 (ip), vehicle: saline + alcohol",150 % of control and 160 % of control
same,T/C,"dose: 12.5 micrograms/kg/injection, schedule: Q01DX009 (ip), vehicle: saline + alcohol",157 % of control and 169 % of control and 173 % of control
same,T/C,"dose: 15.0 micrograms/kg/injection, schedule: Q01DX009 (ip), vehicle: saline + alcohol",170 % of control
same,T/C,"dose: 25.0 micrograms/kg/injection, schedule: Q01DX009 (ip), vehicle: saline + alcohol",164 % of control and 168 % of control and 183 % of control
same,T/C,"dose: 30.0 micrograms/kg/injection, schedule: Q01DX009 (ip), vehicle: saline + alcohol",179 % of control
same,T/C,"dose: 50.0 micrograms/kg/injection, schedule: Q01DX009 (ip), vehicle: saline + alcohol",163 % of control
same,T/C,"dose: 60.0 micrograms/kg/injection, schedule: Q01DX009 (ip), vehicle: saline + alcohol",191 % of control
COc1cc(/C=C/[N+](=O)[O-])c([N+](=O)[O-])cc1OC,T/C,[1],102 % of control
same,T/C,[2],90 % of control
same,T/C,[3],92 % of control
CN(C(=O)c1cccnc1)c1ccccc1,T/C,"dose: 100.0 mg/kg/injection, schedule: Q01DX009 (ip), vehicle: saline with Tween-80",109 % of control
same,T/C,"dose: 200.0 mg/kg/injection, schedule: Q01DX009 (ip), vehicle: saline with Tween-80",118 % of control
same,T/C,"dose: 400.0 mg/kg/injection, schedule: Q01DX009 (ip), vehicle: saline with Tween-80",111 % of control
CCCOP(OCCC)OCCC,T/C,[1],109 % of control
same,T/C,[2],118 % of control
same,T/C,[3],100 % of control
same,T/C,[4],92 % of control
CC(=O)CC(c1ccccc1)c1c(O)c2ccccc2oc1=O (stereo not drawn),T/C,"dose: 0.05 mg/kg/injection, schedule: Q01DX009 (ip), vehicle: saline with Tween-80",107 % of control
same,T/C,"dose: 0.1 mg/kg/injection, schedule: Q01DX009 (ip), vehicle: saline with Tween-80",98 % of control
same,T/C,"dose: 0.2 mg/kg/injection, schedule: Q01DX009 (ip), vehicle: saline with Tween-80",104 % of control
same,T/C,"dose: 0.8 mg/kg/injection, schedule: Q01DX009 (ip), vehicle: saline with Tween-80",90 % of control
CCNCCCOCC,T/C,"dose: 12.5 mg/kg/injection, schedule: Q04DX003 (ip), vehicle: saline",104 % of control
same,T/C,"dose: 25.0 mg/kg/injection, schedule: Q04DX003 (ip), vehicle: saline",102 % of control
same,T/C,"dose: 50.0 mg/kg/injection, schedule: Q04DX003 (ip), vehicle: saline",102 % of control
